Measured values from publication PMC10331946, “Characterization of Natural Compounds as Inhibitors of NS1 Endonuclease from Canine Parvovirus Type 2” (Journal of Microbiology and Biotechnology, 2023).
Values joined by “and” are separate entries in the source; they are usually repeats but may differ in a detail not shown here. Equal values may be shown once. Read-outs that look alike come from different tables or passages of the source.

Target: T1, CPV-2 NS1 endonuclease (Canine parvovirus type 2, UniProt P12929)
T1 construct: hexahistidine (N); hexahistidine (C); made in house; host or cells: E. coli BL21 (De3) pLysS
T1 sequence (P12929 1-277): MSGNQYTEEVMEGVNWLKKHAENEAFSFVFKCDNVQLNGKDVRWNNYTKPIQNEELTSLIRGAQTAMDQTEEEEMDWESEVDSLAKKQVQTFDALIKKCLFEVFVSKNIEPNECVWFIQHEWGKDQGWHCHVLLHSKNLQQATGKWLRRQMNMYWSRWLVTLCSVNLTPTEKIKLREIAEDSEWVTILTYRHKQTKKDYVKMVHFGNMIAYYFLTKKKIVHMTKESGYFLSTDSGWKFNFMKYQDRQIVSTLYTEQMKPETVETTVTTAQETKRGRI
Assay: FRET nicking assay, inhibition of recombinant CPV-2 NS1 endonuclease
Type: biochemical, Canine parvovirus type 2 (CPV-2)
Conditions: for Inhibition (%) at 50 μM: 50 μM inhibitor; for IC50: single compounds, 1.25 μg endonuclease, pH 7.0, 300 mM NaCl, 37°C, curcumin by 4PL, others by linear regression
From the text: The fluorescence resonance energy transfer (FRET) substrate, which was composed of an oligonucleotide 5¢-TAA CCT TAC CAT AAG TA↓T CAA TCT GTC TTT-3¢ labeled with carboxyfluorescein (FAM) at the 5¢-terminus and black hole quencher 1 (BHQ1) at the 3¢-terminus as the energy transfer pair, was designed and synthesized by Bioneer Corp. (Korea) (Fig. S1).
cDNA of the CPV-2 NS1 endonuclease gene was synthesized after codon optimization (Genscript, USA) based on the N-terminal amino acid sequence (amino acids 1–277 of the DNA-binding region) of CPV-2 NS1 endonuclease (GenBank Accession No. AAV36764.1) (Fig. S2). The CPV-2 NS1 endonuclease gene was imbedded into the pET-28a (+) vector (Novagen, Germany) with hexahistidine tags at the N- and C-termini. The plasmids were transformed into E. coli BL21 (De3) pLysS (Invitrogen, USA) for expression. The transformed cells were cultured in 1 L of LB containing 30 μg/ml kanamycin at 37°C until the OD600 reached 0.6. Next, protein expression was induced with 1 mM isopropyl β-D-1-thiogalactopyranoside (IPTG) at 24°C for 20 h. Cells were harvested by centrifugation at 12,000 ×g for 25 min and 4°C. The pellet was resuspended in 50 ml 50 mM Tris-HCl buffer (pH 7.0) containing 300 mM NaCl and disrupted by sonication. After centrifugation at 12,000 ×g for 30 min and 4°C, the supernatant was applied to a Ni-NTA agarose column (Qiagen, Germany) and washed with 50 mM Tris-HCl buffer (pH 8.0) containing 300 mM NaCl and 20 mM imidazole. CPV-2 NS1 endonuclease was eluted with 50 mM Tris-HCl buffer (pH 8.0) containing 300 mM NaCl, and 250 mM imidazole, and dialyzed against 50 mM Tris-HCl (pH 7.0) containing 300 mM NaCl at 4°C overnight. The purified protein was stored at −20°C until required.
CPV-2 NS1 endonuclease activity was measured using an FRET substrate as described above. The reaction mixture was composed of 1.25 μg endonuclease and 0.6 μM FRET in 50 mM Tris-HCl buffer (pH 7.0). The reaction was run at 37°C with continuous monitoring of fluorescence for 10 min. Relative fluorescence units (RFUs) were measured using a SpectraMax M3 fluorescence plate reader (Molecular Devices, USA) with an excitation wavelength of 495 nm and an emission wavelength of 517 nm.
Thirty-one compounds, extracted sesame cake, turmeric, and yerba mate were tested for inhibitory effects against CPV-2 NS1 endonuclease. For screening, thirty-one compounds, turmeric, and yerba mate were dissolved in dimethyl sulfoxide (DMSO) to 5 mM or 10 mg/ml as stock solutions. Sesame cake extract (10 mg/ml) was solubilized in water. The reaction was initiated by adding 0.6 μM FRET substrate to a mixture of 50 μM compound and 1.25 μg endonuclease in 50 mM Tris-HCl buffer (pH 7.0) containing 300 mM NaCl. The reaction was run at 37°C for 3 min using a SpectraMax M3 fluorescence plate reader with an excitation wavelength of 495 nm and emission wavelength of 517 nm. Inhibitory activity was calculated using the following equation:
Inhibition activity (%) 100-[(S-S0)÷(C-C0)]×100
where C is RFU of the control (enzyme, buffer, and substrate) after a 3 min reaction, C0 is the RFU of the control at 0 min, S is the RFU of the sample (enzyme, buffer, inhibitor, and substrate) after 3 min, and S0 is the RFU of the sample at 0 min.
We determined the 50% inhibitory concentrations (IC50) of the six natural compounds, extracted turmeric, yerba mate, and sesame cake relative to the inhibitor-free control. The IC50 values of curcumin, and extracted sesame cake were calculated using a four-parameter logistic curve (4PL) using Prism v. 8 software (GraphPad Software Inc., USA). […] 8 software.

[1] = 0.6 μM FRET substrate, 1.25 μg enzyme, 50 mM Tris/HCl pH 7.0, 37°C, 3 min
[2] = pH 7, read-out: Inhibition (%) at 50 μM, 50 μM inhibitor, 0.6 μM FRET substrate, 1.25 μg enzyme, 50 mM Tris/HCl pH 7.0, 37°C, 3 min
[3] = pH 7, 50 μM inhibitor, 0.6 μM FRET substrate, 1.25 μg enzyme, 50 mM Tris/HCl pH 7.0, 37°C, 3 min, read-out: Inhibition (%) at 50 μM

Compound	Inhibition (%) at 50 μM [1]	inhibition at 50 µM [3] [%]	other results
Cc1c(C)c2c(c(C)c1O)CC[C@@](C)(CCC[C@H](C)CCC[C@H](C)CCCC(C)C)O2 [α-Tocopherol (Vitamin E), α-Tocopherol]	98 ± 3%	–	inhibition at 50 µM [2]: > 95%; IC50 (0.6 μM FRET substrate, 3 min): 8030 ± 800 nM
O=C(O)/C=C/c1ccc(O)c(O)c1 [Caffeic acid]	42 ± 8%	–	Inhibition (%) at 50 μM (0.6 μM FRET substrate, 1.25 μg enzyme, 50 mM Tris/HCl pH 7.0, 37°C, 3 min, listed as caffeic acid): < 50% and > 29%
c1cc2c(cc1O[C@H]1OC[C@H]3[C@@H]1CO[C@@H]3c1ccc3c(c1)OCO3)OCO2 [Sesamolin]	did not inhibit	0	–
Oc1ccc(/C=C/c2cc(O)cc(O)c2)cc1 [Resveratrol]	did not inhibit	0	–
O=C(/C=C/c1ccc(O)cc1)CC(=O)/C=C/c1ccc(O)cc1 [Bisdemethoxycurcumin]	100%	–	inhibition at 50 µM [2]: > 95%; IC50 (0.6 μM FRET substrate, 3 min): 450 ± 50 nM
C[C@H]1[C@H](C)CC[C@]2(C(=O)O)CC[C@]3(C)C(=CC[C@@H]4[C@@]5(C)CC[C@H](O)C(C)(C)[C@@H]5CC[C@]43C)[C@H]12 [Ursolic acid]	29 ± 5%	–	Inhibition (%) at 50 μM (0.6 μM FRET substrate, 1.25 μg enzyme, 50 mM Tris/HCl pH 7.0, 37°C, 3 min, listed as ursolic acid): < 50% and > 29%
O=C(/C=C/c1ccc(O)c(O)c1)O[C@@H]1C[C@](O)(C(=O)O)C[C@@H](O)[C@H]1O [Chlorogenic acid]	29 ± 4%	–	Inhibition (%) at 50 μM (0.6 μM FRET substrate, 1.25 μg enzyme, 50 mM Tris/HCl pH 7.0, 37°C, 3 min, listed as chlorogenic acid): < 50% and > 29%
COc1cc(/C=C/C(=O)CC(=O)/C=C/c2ccc(O)cc2)ccc1O [Demethoxycurcumin]	100%	–	inhibition at 50 µM [2]: > 95%; IC50 (0.6 μM FRET substrate, 3 min): 630 ± 10 nM
O=C(O[C@@H]1Cc2c(O)cc(O)cc2O[C@@H]1c1cc(O)c(O)c(O)c1)c1cc(O)c(O)c(O)c1 [EGCG, epigallocatechin gallate]	49 ± 6%	–	Inhibition (%) at 50 μM (0.6 μM FRET substrate, 1.25 μg enzyme, 50 mM Tris/HCl pH 7.0, 37°C, 3 min, listed as epigallocatechin gallate): < 50%
C[N+](C)(C)C[C@H](O)CC(=O)[O-] [L-carnitine]	< 50% and 29 ± 2%	–	–
Oc1ccc2c(c1)OCO2 [Sesamol]	9 ± 5%	–	Inhibition (%) at 50 μM (0.6 μM FRET substrate, 1.25 μg enzyme, 50 mM Tris/HCl pH 7.0, 37°C, 3 min, listed as sesamol): < 50%
CC1=C(C/C=C(\C)CCC[C@H](C)CCC[C@H](C)CCCC(C)C)C(=O)c2ccccc2C1=O [Vitamin K1]	–	68 ± 15	–
O=C(O)c1cc(O)c(O)c(O)c1 [Gallic acid]	2 ± 2%	–	Inhibition (%) at 50 μM (0.6 μM FRET substrate, 1.25 μg enzyme, 50 mM Tris/HCl pH 7.0, 37°C, 3 min, listed as gallic acid): < 50%
O=c1c(O)c(-c2ccc(O)c(O)c2)oc2cc(O)ccc12 [Fisetin]	did not inhibit	0	–
O=C1C[C@@H](c2ccc(O)cc2)Oc2cc(O)cc(O)c21 [Naringenin]	did not inhibit	0	–
CCCCC/C=C\C/C=C\CCCCCCCC(=O)O [Linoleic acid]	100%	–	inhibition at 50 µM [2]: > 95%; IC50 (0.6 μM FRET substrate, 3 min): 1140 ± 40 nM
Cn1c(=O)c2c(ncn2C)n(C)c1=O [Caffeine]	7 ± 7%	–	Inhibition (%) at 50 μM (0.6 μM FRET substrate, 1.25 μg enzyme, 50 mM Tris/HCl pH 7.0, 37°C, 3 min, listed as caffeine): < 50%
O=c1c(O[C@@H]2O[C@H](CO)[C@@H](O)[C@H](O)[C@H]2O)c(-c2ccc(O)cc2)oc2cc(O)cc(O)c12 [Astragalin]	did not inhibit	0	–
O=C(/C=C/C=C/c1ccc2c(c1)OCO2)N1CCCCC1 [Piperine]	did not inhibit	0	–
C[C@@H]1O[C@@H](OC[C@H]2O[C@@H](Oc3c(-c4ccc(O)c(O)c4)oc4cc(O)cc(O)c4c3=O)[C@H](O)[C@@H](O)[C@@H]2O)[C@H](O)[C@H](O)[C@H]1O [Rutin]	did not inhibit	0	–
CC1(C)CC[C@]2(C(=O)O)CC[C@]3(C)C(=CC[C@@H]4[C@@]5(C)CC[C@H](O)C(C)(C)[C@@H]5CC[C@]43C)[C@@H]2C1 [Oleanolic acid]	51 ± 7%	–	Inhibition (%) at 50 μM (0.6 μM FRET substrate, 1.25 μg enzyme, 50 mM Tris/HCl pH 7.0, 37°C, 3 min, listed as oleanolic acid): > 29%
O=C1O[C@H]([C@@H](O)CO)C(O)=C1O [L-Ascorbic acid]	did not inhibit	0	–
O=c1c(O)c(-c2ccc(O)c(O)c2)oc2cc(O)cc(O)c12 [Quercetin]	51 ± 3%	–	Inhibition (%) at 50 μM (0.6 μM FRET substrate, 1.25 μg enzyme, 50 mM Tris/HCl pH 7.0, 37°C, 3 min, listed as quercetin): > 29%
O=c1c(-c2ccc(O)cc2)coc2cc(O)cc(O)c12 [Genistein]	45 ± 14%	–	inhibition at 50 µM [2]: < 50%
c1cc2c(cc1[C@H]1OC[C@H]3[C@@H]1CO[C@@H]3c1ccc3c(c1)OCO3)OCO2 [(+)-Sesamin]	did not inhibit	0	–
O=c1c(O)c(-c2cc(O)c(O)c(O)c2)oc2cc(O)cc(O)c12 [Myricetin]	did not inhibit	0	–
COc1cc(/C=C/C(=O)O)ccc1O [Ferulic acid]	37 ± 5%	–	Inhibition (%) at 50 μM (0.6 μM FRET substrate, 1.25 μg enzyme, 50 mM Tris/HCl pH 7.0, 37°C, 3 min, listed as ferulic acid): < 50%
O=c1c2cc(O)c(O)cc2oc2cc(O)c([C@@H]3O[C@H](CO)[C@@H](O)[C@H](O)[C@H]3O)c(O)c12 [Mangiferin]	did not inhibit	0	–
